From patent US20130129595A1 (SOLVAY SA, priority 2010, published 2013)

Assay: Solubility of LiPO2F2, LiF and LiPF6 in organic solvents

Structure (SMILES) | Solubility (in words) (in acetone) | Solubility (in words) (in aprotic organic solvents) | Solubility (in words) (in dimethoxyethane) | Solubility (in words) (in dimethyl carbonate and propylene carbonate)
[F-].[Li+] [LiF] | very low solubility | only very sparingly soluble | at most in negligible amounts | essentially insoluble
F[P-](F)(F)(F)(F)F.[Li+] [LiPF6] |  | comparably good solubility |  | 
